Assay results: patent US10800791B2, “Triazole ACC inhibitors and uses thereof” (Gilead Apollo, LLC, priority 2015, dated 2020)
In brackets after ≈: the same amount, converted by molar mass. Read-outs that look alike come from different tables or passages of the source.

How the values were obtained:
ACC1 = ACC1 isolated from rat, mouse, monkey and human; cited from earlier work
ACC2 = ACC2 isolated from rat, mouse, monkey and human; cited from earlier work
C. parapsilosis = test: Antifungal Activity Assay (broth microtiter MIC), C. parapsilosis; assay type: cell-based, Candida parapsilosis; conditions: Lodderomyces parapsilosis, ATCC22019, 48 h
Method in brief: (§1)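 CLSI M27-A3 broth microdilution in RPMI 1640+MOPS, final inoculum 2.5×10^3 CFU/mL from overnight Sabouraud cultures grown at 35 °C. MIC read visually at 48 h against growth control.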

C. albicans = test: Antifungal Activity Assay (broth microtiter MIC), C. albicans; assay type: cell-based, Candida albicans; conditions: Candida albicans, ATCC90028, 48 h
Method in brief: as §1

[1] = test system: Phytophthora capsici (Pc); test: Growth inhibition assay of fungal pathogens, Pc; assay type: cell-based; conditions: 48 h
Method in brief: (§2)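 Spore suspension in 17% V8 liquid media; cpd final 50/10/2 or 2/0.4/0.08 ppm, 2% DMSO. OD600 + visual, 24 & 48 h; % inhibition at 48 h vs 2% DMSO ctrl.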

[2] = test system: Collectotrichum graminicola (Cg); test: Growth inhibition assay of fungal pathogens, Cg; assay type: cell-based; conditions: 48 h, growth inhibition at 48 hours vs 2% DMSO control
Method in brief: as §2

Rhizoctonia solani (Rs) = test: Growth inhibition assay of fungal pathogens, Rs; assay type: cell-based; conditions: 48 h
Septoria tritici (St) = test: Growth inhibition assay of fungal pathogens, St; assay type: cell-based; conditions: Zymoseptoria tritici, 48 h, growth inhibition at 48 hours vs 2% DMSO control
Method in brief: as §2

Botrtyis cinerea (Bc) = test: Growth inhibition assay of fungal pathogens, Bc; assay type: cell-based; conditions: 48 h, growth inhibition at 48 hours vs 2% DMSO control
Method in brief: as §2

Diplodia maydis (Dm) = test: Growth inhibition assay of fungal pathogens, Dm; assay type: cell-based; conditions: Stenocarpella maydis, 48 h, growth inhibition at 48 hours vs 2% DMSO control
Method in brief: as §2

human (hACC2) = human (hACC2) (Homo sapiens, UniProt O00763); test: In vitro ACC inhibition assay (ADP-Glo), hACC2; assay type: biochemical; conditions: Table 2b, additional results, 5 nM ACC2, 20 μM ATP, 20 μM acetyl-CoA
Procedure: The detailed procedure is as follows. […] 10 μL ADP glo reagent was added. […] 20 μL kinase detection reagent was added.

[3] = test system: Fusarium moniliforme (Fm); test: Growth inhibition assay of fungal pathogens, Fm; assay type: cell-based; conditions: Fusarium verticillioides, 48 h, read-out: Concentration at 90% Inhibition Fm
Method in brief: as §2

C. krusei = test: Antifungal Activity Assay (broth microtiter MIC), C. krusei; assay type: cell-based, Candida krusei; conditions: Pichia kudriavzevii, ATCC6258, 48 h
Method in brief: as §1

[4] = test system: Fusarium virguliforme (Fv); test: Growth inhibition assay of fungal pathogens, Fv; assay type: cell-based; conditions: 48 h
Method in brief: as §2

fungal (fACC2) = fungal (fACC2) (UniProt Q00955); conditions: read-out: fACC2 (in vitro ACC2 Inhibition Assay, IC50); Table 2b, additional results; ADP-Glo, 5 nM ACC2, 20 μM ATP, 20 μM acetyl-CoA
[5] = read-out: MIC, C. parapsilosis ATCC 22019, Table 3b (additional results), 3 replicates, MIC recorded at 48 h
[6] = read-out: MIC, C. albicans ATCC 90028, Table 3b (additional results), 3 replicates, MIC recorded at 48 h
[7] = read-out: Concentration at 90% Inhibition Pc, Phytophthora capsici, growth inhibition at 48 hours vs 2% DMSO control
[8] = read-out: Concentration at 90% Inhibition Cg, Collectotrichum graminicola
[9] = read-out: Concentration at 90% Inhibition Rs, Rhizoctonia solani, mycelial plugs, growth inhibition at 48 hours vs 2% DMSO control
[10] = read-out: Concentration at 90% Inhibition St, Septoria tritici
[11] = read-out: Concentration at 90% Inhibition Bc, Botrtyis cinerea
[12] = read-out: Concentration at 90% Inhibition Dm, Diplodia maydis
[13] = read-out: MIC, C. krusei ATCC 6258, Table 3b (additional results), 3 replicates, MIC recorded at 48 h
[14] = read-out: Concentration at 90% Inhibition Fv, Fusarium virguliforme, growth inhibition at 48 hours vs 2% DMSO control
[15] = Table 3b (additional results), ATCC 22019, 3 replicates, MIC recorded at 48 h, read-out: MIC, C. parapsilosis ATCC 22019
[16] = Table 3b (additional results), ATCC 90028, 3 replicates, MIC recorded at 48 h, read-out: MIC, C. albicans ATCC 90028
[17] = growth inhibition at 48 hours vs 2% DMSO control, read-out: Concentration at 90% Inhibition Pc
[18] = Collectotrichum graminicola, read-out: Concentration at 90% Inhibition Cg
[19] = mycelial plugs, growth inhibition at 48 hours vs 2% DMSO control, read-out: Concentration at 90% Inhibition Rs
[20] = Septoria tritici, read-out: Concentration at 90% Inhibition St
[21] = Botrtyis cinerea, read-out: Concentration at 90% Inhibition Bc
[22] = Diplodia maydis, read-out: Concentration at 90% Inhibition Dm
[23] = Fusarium moniliforme, growth inhibition at 48 hours vs 2% DMSO control
[24] = Table 3b (additional results), ATCC 6258, 3 replicates, MIC recorded at 48 h, read-out: MIC, C. krusei ATCC 6258
[25] = growth inhibition at 48 hours vs 2% DMSO control, read-out: Concentration at 90% Inhibition Fv

fungal (fACC2), sequence (Q00955 whole entry): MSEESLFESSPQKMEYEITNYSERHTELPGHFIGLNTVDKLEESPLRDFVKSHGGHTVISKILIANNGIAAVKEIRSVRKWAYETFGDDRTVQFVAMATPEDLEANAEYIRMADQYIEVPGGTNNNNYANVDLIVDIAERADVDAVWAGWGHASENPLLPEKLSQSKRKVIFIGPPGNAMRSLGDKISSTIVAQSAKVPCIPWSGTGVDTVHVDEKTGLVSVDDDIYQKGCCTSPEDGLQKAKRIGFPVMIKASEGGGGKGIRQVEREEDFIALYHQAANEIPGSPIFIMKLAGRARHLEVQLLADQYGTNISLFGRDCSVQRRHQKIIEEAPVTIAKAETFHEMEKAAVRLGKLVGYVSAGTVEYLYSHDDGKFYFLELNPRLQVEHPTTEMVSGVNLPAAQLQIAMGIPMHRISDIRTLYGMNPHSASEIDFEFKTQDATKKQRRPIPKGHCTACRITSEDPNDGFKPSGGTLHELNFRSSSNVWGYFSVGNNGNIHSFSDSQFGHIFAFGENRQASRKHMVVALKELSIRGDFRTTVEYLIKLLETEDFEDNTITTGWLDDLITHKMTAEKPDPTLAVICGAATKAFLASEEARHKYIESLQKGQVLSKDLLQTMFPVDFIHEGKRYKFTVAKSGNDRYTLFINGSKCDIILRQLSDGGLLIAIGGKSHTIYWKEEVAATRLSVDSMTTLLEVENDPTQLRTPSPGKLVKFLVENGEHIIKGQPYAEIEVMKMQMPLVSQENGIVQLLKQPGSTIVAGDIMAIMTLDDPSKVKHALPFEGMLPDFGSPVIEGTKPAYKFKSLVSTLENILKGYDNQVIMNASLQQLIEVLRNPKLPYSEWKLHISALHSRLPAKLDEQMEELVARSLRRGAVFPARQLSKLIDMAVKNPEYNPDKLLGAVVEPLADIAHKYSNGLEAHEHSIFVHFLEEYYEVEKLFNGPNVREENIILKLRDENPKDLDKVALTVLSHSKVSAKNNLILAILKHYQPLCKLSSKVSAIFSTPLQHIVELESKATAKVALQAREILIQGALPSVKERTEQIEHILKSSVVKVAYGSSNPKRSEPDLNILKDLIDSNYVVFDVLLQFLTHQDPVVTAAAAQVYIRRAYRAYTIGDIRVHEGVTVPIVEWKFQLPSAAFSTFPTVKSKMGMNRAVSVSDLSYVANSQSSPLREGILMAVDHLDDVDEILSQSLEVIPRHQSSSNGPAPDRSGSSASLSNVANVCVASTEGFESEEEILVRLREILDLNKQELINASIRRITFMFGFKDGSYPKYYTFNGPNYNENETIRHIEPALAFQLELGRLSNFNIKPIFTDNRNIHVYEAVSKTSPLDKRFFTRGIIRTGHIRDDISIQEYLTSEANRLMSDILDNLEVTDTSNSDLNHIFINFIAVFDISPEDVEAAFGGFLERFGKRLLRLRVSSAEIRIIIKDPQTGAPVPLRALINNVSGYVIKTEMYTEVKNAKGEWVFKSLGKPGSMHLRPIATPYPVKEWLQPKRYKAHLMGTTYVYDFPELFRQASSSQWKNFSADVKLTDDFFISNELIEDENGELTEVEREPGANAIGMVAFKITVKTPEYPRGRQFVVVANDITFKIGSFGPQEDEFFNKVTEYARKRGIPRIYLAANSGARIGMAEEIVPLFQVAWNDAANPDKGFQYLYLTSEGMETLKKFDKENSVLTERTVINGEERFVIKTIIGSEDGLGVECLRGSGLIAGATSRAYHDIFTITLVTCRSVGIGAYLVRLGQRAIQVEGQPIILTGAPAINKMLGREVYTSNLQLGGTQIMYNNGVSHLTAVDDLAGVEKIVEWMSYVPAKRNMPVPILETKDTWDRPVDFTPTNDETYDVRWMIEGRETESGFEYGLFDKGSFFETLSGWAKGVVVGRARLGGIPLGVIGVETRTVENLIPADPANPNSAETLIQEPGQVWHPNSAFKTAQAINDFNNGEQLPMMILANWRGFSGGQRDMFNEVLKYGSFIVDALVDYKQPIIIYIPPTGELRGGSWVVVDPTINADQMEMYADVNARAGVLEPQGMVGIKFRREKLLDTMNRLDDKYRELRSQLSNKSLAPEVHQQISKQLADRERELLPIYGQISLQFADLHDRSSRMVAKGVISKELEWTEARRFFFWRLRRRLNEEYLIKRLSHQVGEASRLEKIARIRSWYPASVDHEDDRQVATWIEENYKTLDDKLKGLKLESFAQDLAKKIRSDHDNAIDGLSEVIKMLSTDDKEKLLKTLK
human (hACC2), sequence (O00763 whole entry): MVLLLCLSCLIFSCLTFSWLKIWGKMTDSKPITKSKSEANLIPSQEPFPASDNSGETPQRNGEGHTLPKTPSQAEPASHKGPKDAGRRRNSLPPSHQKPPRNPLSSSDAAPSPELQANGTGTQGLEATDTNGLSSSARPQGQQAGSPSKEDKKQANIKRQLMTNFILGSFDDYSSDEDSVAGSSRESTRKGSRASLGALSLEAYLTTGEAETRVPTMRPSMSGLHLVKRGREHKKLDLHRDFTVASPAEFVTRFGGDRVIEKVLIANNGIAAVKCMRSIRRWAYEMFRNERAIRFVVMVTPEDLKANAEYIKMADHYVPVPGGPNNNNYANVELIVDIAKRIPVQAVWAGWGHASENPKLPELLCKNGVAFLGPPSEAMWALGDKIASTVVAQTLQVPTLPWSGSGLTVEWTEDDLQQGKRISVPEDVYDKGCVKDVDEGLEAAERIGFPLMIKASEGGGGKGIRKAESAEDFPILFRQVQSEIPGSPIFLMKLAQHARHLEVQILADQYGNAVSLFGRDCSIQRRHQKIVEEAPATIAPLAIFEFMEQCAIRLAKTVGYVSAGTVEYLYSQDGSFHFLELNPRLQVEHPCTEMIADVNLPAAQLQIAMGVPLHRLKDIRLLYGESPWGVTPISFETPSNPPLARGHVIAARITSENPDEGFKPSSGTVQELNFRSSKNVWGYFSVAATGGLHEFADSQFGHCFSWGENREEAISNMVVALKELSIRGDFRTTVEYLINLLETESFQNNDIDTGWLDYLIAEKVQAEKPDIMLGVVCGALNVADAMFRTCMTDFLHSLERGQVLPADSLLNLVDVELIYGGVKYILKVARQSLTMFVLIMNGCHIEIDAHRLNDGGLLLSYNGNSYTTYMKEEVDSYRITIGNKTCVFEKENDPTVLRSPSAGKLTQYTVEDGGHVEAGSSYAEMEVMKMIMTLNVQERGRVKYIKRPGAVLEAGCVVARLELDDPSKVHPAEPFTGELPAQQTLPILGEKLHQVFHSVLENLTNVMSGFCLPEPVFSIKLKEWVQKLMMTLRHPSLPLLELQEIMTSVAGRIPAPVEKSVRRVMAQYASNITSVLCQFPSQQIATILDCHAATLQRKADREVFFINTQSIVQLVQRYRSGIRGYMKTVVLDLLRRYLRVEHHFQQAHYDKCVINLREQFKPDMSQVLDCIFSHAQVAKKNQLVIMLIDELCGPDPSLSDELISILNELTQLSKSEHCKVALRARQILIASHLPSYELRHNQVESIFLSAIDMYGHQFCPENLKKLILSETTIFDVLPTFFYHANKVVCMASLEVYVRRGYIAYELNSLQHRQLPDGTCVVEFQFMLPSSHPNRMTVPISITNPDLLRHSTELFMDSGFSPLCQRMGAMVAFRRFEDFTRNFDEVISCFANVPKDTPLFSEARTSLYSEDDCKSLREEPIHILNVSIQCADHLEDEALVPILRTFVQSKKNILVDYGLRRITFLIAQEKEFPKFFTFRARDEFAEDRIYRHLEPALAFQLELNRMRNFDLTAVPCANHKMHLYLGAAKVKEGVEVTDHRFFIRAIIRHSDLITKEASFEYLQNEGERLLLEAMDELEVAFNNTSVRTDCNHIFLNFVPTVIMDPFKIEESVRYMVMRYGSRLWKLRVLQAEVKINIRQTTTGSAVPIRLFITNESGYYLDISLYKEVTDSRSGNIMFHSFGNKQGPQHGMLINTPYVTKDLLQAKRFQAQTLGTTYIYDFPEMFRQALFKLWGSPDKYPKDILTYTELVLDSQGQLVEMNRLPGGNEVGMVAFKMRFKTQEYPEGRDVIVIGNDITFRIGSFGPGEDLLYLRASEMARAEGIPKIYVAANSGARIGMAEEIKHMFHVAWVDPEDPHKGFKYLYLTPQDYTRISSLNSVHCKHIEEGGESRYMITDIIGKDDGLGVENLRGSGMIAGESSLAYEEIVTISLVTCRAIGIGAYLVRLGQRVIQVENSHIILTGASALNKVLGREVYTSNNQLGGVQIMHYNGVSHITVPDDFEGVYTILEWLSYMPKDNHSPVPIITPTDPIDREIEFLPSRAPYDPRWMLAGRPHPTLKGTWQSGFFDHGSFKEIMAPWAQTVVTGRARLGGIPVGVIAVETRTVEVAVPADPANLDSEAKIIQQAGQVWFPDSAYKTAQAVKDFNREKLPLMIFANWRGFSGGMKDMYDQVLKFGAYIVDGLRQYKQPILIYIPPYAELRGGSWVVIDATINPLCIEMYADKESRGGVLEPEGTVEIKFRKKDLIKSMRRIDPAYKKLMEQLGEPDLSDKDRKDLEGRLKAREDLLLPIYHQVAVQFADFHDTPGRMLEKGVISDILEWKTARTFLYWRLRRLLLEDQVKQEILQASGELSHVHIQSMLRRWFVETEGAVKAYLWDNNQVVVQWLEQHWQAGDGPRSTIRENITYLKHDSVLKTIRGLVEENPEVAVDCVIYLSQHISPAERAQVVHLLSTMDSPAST

For `O=C(c1c2ccccc2cc2ccccc12)N1CCC(N2CCC[C@@H](C(=O)N3CCOCC3)C2)CC1` [CP-640186], the IC50 (ACC1) is given as about 60 nM and the IC50 (ACC2) is given as about 60 nM.
With `Cc1c(-n2nccn2)sc2c1c(=O)n(C(C)(C)C(=O)NC(C)C)c(=O)n2CCc1cc(F)ccc1OCc1ccccc1` [Compound I-277] the MIC (C. parapsilosis; [5]) was 1.01 to 2 µg/mL (≈ 1.67 to 3.31 µM), the MIC (C. albicans; [6]) was 1.01 to 2 µg/mL (≈ 1.67 to 3.31 µM) and the IC90 [1, 7] was over 50 µg/mL. It also gave an IC90 [2, 8] of over 50 µg/mL, an IC90 (Rhizoctonia solani (Rs); [9]) of over 50 µg/mL and an IC90 (Septoria tritici (St); [10]) of over 50 µg/mL. The IC90 (Botrtyis cinerea (Bc); [11]) was over 50 µg/mL, the IC90 (Diplodia maydis (Dm); [12]) was over 50 µg/mL and the IC50 (human (hACC2)) was 10 to 40 nM. It also gave an IC90 [3] of 2 µg/mL (≈ 3.31 µM), an MIC (C. krusei; [13]) of 1.01 to 2 µg/mL (≈ 1.67 to 3.31 µM) and an IC90 [4, 14] of 2 µg/mL (≈ 3.31 µM). It also gave an IC50 (fungal (fACC2)) of 1 to 5 nM.
`Cc1c(-n2nccn2)sc2c1c(=O)n(C(C)(C)C(=O)NC(C)C)c(=O)n2CCc1cc(F)ccc1CCCC#N` [Compound I-278] gave an MIC (C. parapsilosis; [15]) of 2.01 to 4 µg/mL (≈ 3.55 to 7.07 µM), an MIC (C. albicans; [16]) of 2.01 to 4 µg/mL (≈ 3.55 to 7.07 µM) and an IC90 [1, 17] of over 50 µg/mL. The IC90 [2, 18] was 10 µg/mL (≈ 17.7 µM), the IC90 (Rhizoctonia solani (Rs); [19]) was 10 µg/mL (≈ 17.7 µM) and the IC90 (Septoria tritici (St); [20]) was over 50 µg/mL. It also gave an IC90 (Botrtyis cinerea (Bc); [21]) of 2 µg/mL (≈ 3.54 µM), an IC90 (Diplodia maydis (Dm); [22]) of 2 µg/mL (≈ 3.54 µM) and an IC50 (human (hACC2)) of 10 to 40 nM. It also gave an IC90 [3, 23] of 0.4 µg/mL (≈ 0.707 µM), an MIC (C. krusei; [24]) of 1.01 to 2 µg/mL (≈ 1.79 to 3.54 µM) and an IC90 [4, 25] of 0.4 µg/mL (≈ 0.707 µM). For the same compound, the IC50 (fungal (fACC2)) was 1 to 5 nM.
`Cc1c(-n2nccn2)sc2c1c(=O)n(C(C)(C)C(=O)NC(C)C)c(=O)n2CCc1cc(F)ccc1OC1CCOCC1` [Compound I-279] showed an MIC (C. parapsilosis; [15]) of 1.01 to 2 µg/mL (≈ 1.69 to 3.34 µM), an MIC (C. albicans; [16]) of 2.01 to 4 µg/mL (≈ 3.36 to 6.68 µM) and an IC90 [1, 17] of over 50 µg/mL. The IC90 [2, 18] was 10 µg/mL (≈ 16.7 µM), the IC90 (Rhizoctonia solani (Rs); [19]) was 10 µg/mL (≈ 16.7 µM) and the IC90 (Septoria tritici (St); [20]) was over 50 µg/mL. For the same compound, the IC90 (Botrtyis cinerea (Bc); [21]) was 2 µg/mL (≈ 3.34 µM), the IC90 (Diplodia maydis (Dm); [22]) was over 50 µg/mL and the IC50 (human (hACC2)) was 10 to 40 nM. It also gave an IC90 [3, 23] of 0.08 µg/mL (≈ 0.134 µM), an MIC (C. krusei; [24]) of 2.01 to 4 µg/mL (≈ 3.36 to 6.68 µM) and an IC90 [4, 25] of 0.08 µg/mL (≈ 0.134 µM). It also gave an IC50 (fungal (fACC2)) of 0.3 to 1 nM.
Compound `Cc1c(-n2nccn2)sc2c1c(=O)n(C(C)(C)C(=O)NC(C)C)c(=O)n2CCc1cc(F)ccc1OCCC#N` [Compound I-280] has an MIC (C. parapsilosis; [5]) of 1.01 to 2 µg/mL (≈ 1.78 to 3.52 µM), an MIC (C. albicans; [6]) of 1.01 to 2 µg/mL (≈ 1.78 to 3.52 µM) and an IC90 [1, 7] of over 50 µg/mL. The IC90 [2, 8] was over 50 µg/mL, the IC90 (Rhizoctonia solani (Rs); [9]) was over 50 µg/mL and the IC90 (Septoria tritici (St); [10]) was over 50 µg/mL. It also gave an IC90 (Botrtyis cinerea (Bc); [11]) of 10 µg/mL (≈ 17.6 µM), an IC90 (Diplodia maydis (Dm); [12]) of over 50 µg/mL and an IC50 (human (hACC2)) of 10 to 40 nM. It also gave an IC90 [3] of 2 µg/mL (≈ 3.52 µM), an MIC (C. krusei; [13]) of 1.01 to 2 µg/mL (≈ 1.78 to 3.52 µM) and an IC90 [4, 14] of 2 µg/mL (≈ 3.52 µM). For the same compound, the IC50 (fungal (fACC2)) was 1 to 5 nM.
With `Cc1c(-n2nccn2)sc2c1c(=O)n(C(C)(C)C(=O)NC(C)C)c(=O)n2CCc1cc(F)ccc1OC(C)C` [Compound I-281] the MIC (C. parapsilosis; [15]) was 2.01 to 4 µg/mL (≈ 3.61 to 7.19 µM), the MIC (C. albicans; [16]) was over 4.01 µg/mL and the IC90 [1, 17] was over 50 µg/mL. For the same compound, the IC90 [2, 18] was 10 µg/mL (≈ 18 µM), the IC90 (Rhizoctonia solani (Rs); [19]) was 10 µg/mL (≈ 18 µM) and the IC90 (Septoria tritici (St); [20]) was over 50 µg/mL. It also gave an IC90 (Botrtyis cinerea (Bc); [21]) of 2 µg/mL (≈ 3.59 µM), an IC90 (Diplodia maydis (Dm); [22]) of 2 µg/mL (≈ 3.59 µM) and an IC50 (human (hACC2)) of 10 to 40 nM. The IC90 [3, 23] was 0.08 µg/mL (≈ 0.144 µM), the MIC (C. krusei; [24]) was 1.01 to 2 µg/mL (≈ 1.81 to 3.59 µM) and the IC90 [4, 25] was 0.08 µg/mL (≈ 0.144 µM). For the same compound, the IC50 (fungal (fACC2)) was 0.3 to 1 nM.
